The results in this text go back to patent publication US12295997B2, “Prostate neoantigens and their uses” (Janssen Biotech, Inc., priority 2020, dated 2025).

The test system of the assay is CD8+ and CD4+ T cells (autologous CD3+ Pan-T cells isolated from human normal PBMCs). Briefly: Exogenous autologous normal donor restimulation assay (15-mer overlapping peptide pools on CD1c+ dendritic cells, TNFα/IFNγ flow cytometry). It counts as cell-based. The settings on record: 15-mer overlapping peptide pool; for Max. Fold Change over background CD4+ TNFαINFγ double positive DP / Max. Fold Change over background CD8+ TNFαINFγ double positive DP / Max. Frequency of CD4+ TNFαINFγ DP / Max. Frequency of CD8+ TNFαINFγ DP: Table 28, additional neoantigens, highest across normal donors; for Maximum Fold Change Over Background CD4+ cells / Maximum Fold Change Over Background CD8+ cells / Maximum Frequency of TNFα/IFNγ Double Positive CD4+ T cells / Maximum Frequency of TNFα/IFNγ Double Positive CD8+ T cells: Table 25; for Maximum Fold Change Over Background CD4+ cells: TNFα+IFNγ+ CD4+ T cells; for Maximum Fold Change Over Background CD4+ cells / Maximum Fold Change Over Background CD8+ cells: highest fold change over negative control across normal donors; for Maximum Fold Change Over Background CD8+ cells: TNFα+IFNγ+ CD8+ T cells; for Maximum Frequency of TNFα/IFNγ Double Positive CD4+ T cells / Maximum Frequency of TNFα/IFNγ Double Positive CD8+ T cells: highest frequency across normal donors. The gist of the method:
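Autologous CD3+ Pan-T cells from normal donors were co-cultured 12 days with irradiated CD1c+ DCs pulsed with 15-mer overlapping neoantigen peptide pools at 2.5–10 μg/mL, with IL-15 and IL-2 support. Cells were restimulated on day 11, then TNFα/IFNγ double-positive CD8+ and CD4+ frequencies read by flow. Positive means ≥3-fold over DMSO and ≥0.01%.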
For orientation: Flow cytometry measures light scatter and fluorescence of single cells or particles in a stream.

Consider “DLRRVATYCAPLPSSWRPGTGTTIPPRMRSC (listed as Homo sapiens) [FUS23, NUDT14->JAG2 gene fusion]”, for which the “Max. Fold Change over background CD4+ TNFαINFγ double positive DP” value amounted to 12.77, the “Max. Fold Change over background CD8+ TNFαINFγ double positive DP” value was 11.05, the “Max. Frequency of CD4+ TNFαINFγ DP” value came to 0.12 and the “Max. Frequency of CD8+ TNFαINFγ DP” value worked out at 0.62.
On to “GNTTLQQLGEASQAPSGSLIPLRLPLLWEVRG (listed as Homo sapiens) [AS16, LRRC45 alternative splicing]”, for which the “Maximum Fold Change Over Background CD4+ cells” value was 7.78, the “Maximum Fold Change Over Background CD8+ cells” value is on record as 24.17, the “Maximum Frequency of TNFα/IFNγ Double Positive CD4+ T cells” value was 0.140 and the “Maximum Frequency of TNFα/IFNγ Double Positive CD8+ T cells” value was 0.290.
On to “EAFQRAAGEGGPGRGGARRGARVLQSPFCRAGAGEWLGHQSLR (listed as Homo sapiens) [AS41, RHPN1 alternative splicing]”, for which the “Maximum Fold Change Over Background CD4+ cells” value was 2.20, the “Maximum Fold Change Over Background CD8+ cells” value was found to be 190.60, the “Maximum Frequency of TNFα/IFNγ Double Positive CD4+ T cells” value was found to be 0.022 and the “Maximum Frequency of TNFα/IFNγ Double Positive CD8+ T cells” value was 9.530.
With “MS5 (EFSPETCAFRLS; listed as Homo sapiens)”, the “Max. Fold Change over background CD4+ TNFαINFγ double positive DP” value turned out to be 126.05, the “Max. Fold Change over background CD8+ TNFαINFγ double positive DP” value stood at 32.89, the “Max. Frequency of CD4+ TNFαINFγ DP” value was 0.2 and the “Max. Frequency of CD8+ TNFαINFγ DP” value came to 1.95.
Consider “LVLGVLSGHSGSRL (listed as Homo sapiens) [AS8, CACNA1D alternative splicing]”, for which the “Maximum Fold Change Over Background CD4+ cells” value is 4.08, the “Maximum Fold Change Over Background CD8+ cells” value was determined as 54.55, the “Maximum Frequency of TNFα/IFNγ Double Positive CD4+ T cells” value was 0.049 and the “Maximum Frequency of TNFα/IFNγ Double Positive CD8+ T cells” value amounted to 0.600.

B1: CHLFLQPQVGTPPPHTASARAPSGPPHPHESCPAGRRPARAAQTCARRQHGLPGCEEAGTARVPSLHLHLHQAALGAGRGRGWGEACAQVPPSRG (peptide, listed as Homo sapiens)
chain: CHLFLQPQVGTPPPHTASARAPSGPPHPHESCPAGRRPARAAQTCARRQHGLPGCEEAGTARVPSLHLHLHQAALGAGRGRGWGEACAQVPPSRG
notes: RECQL4 alternative splicing
Turning to B1, the “Maximum Fold Change Over Background CD4+ cells” value was determined as 7.51, the “Maximum Fold Change Over Background CD8+ cells” value is listed as 19.47, the “Maximum Frequency of TNFα/IFNγ Double Positive CD4+ T cells” value amounted to 0.04 and the “Maximum Frequency of TNFα/IFNγ Double Positive CD8+ T cells” value is listed as 0.74.

B2: VPFRELKNQRTAQGAPGIHHAASPVAANLCDPARHAQHTRIPCGAGQVRAGRGPEAGGGVLQPQRPAPEKPGCPCRRGQPRLHTVKMWRA (peptide, listed as Homo sapiens)
chain: VPFRELKNQRTAQGAPGIHHAASPVAANLCDPARHAQHTRIPCGAGQVRAGRGPEAGGGVLQPQRPAPEKPGCPCRRGQPRLHTVKMWRA
notes: CPNE7 alternative splicing
Regarding B2, the “Maximum Fold Change Over Background CD4+ cells” value came to 2.98, the “Maximum Fold Change Over Background CD8+ cells” value is on record as 5.11, the “Maximum Frequency of TNFα/IFNγ Double Positive CD4+ T cells” value is reported as 0.03 and the “Maximum Frequency of TNFα/IFNγ Double Positive CD8+ T cells” value is given as 0.07.

B3: VPFRELKNVSVLEGLRQGRLGGPCSCHCPRPSQARLTPVDVAGPFLCLGDPGLFPPVKSSI (peptide, listed as Homo sapiens)
chain: VPFRELKNVSVLEGLRQGRLGGPCSCHCPRPSQARLTPVDVAGPFLCLGDPGLFPPVKSSI
notes: CPNE7 alternative splicing
In the case of B3, the “Maximum Fold Change Over Background CD4+ cells” value is on record as 5.67, the “Maximum Fold Change Over Background CD8+ cells” value came to 28.75, the “Maximum Frequency of TNFα/IFNγ Double Positive CD4+ T cells” value was 0.040 and the “Maximum Frequency of TNFα/IFNγ Double Positive CD8+ T cells” value worked out at 0.460.
